Laboratory results reported in ChEMBL document CHEMBL3621049, “Imidazole derivatives show anticancer potential by inducing apoptosis and cellular senescence” (2014).
Calls of active or inactive are those of the source.

Legend:
Type in all cases: functional, cell-based
RPMI-8226 = test: Growth inhibition of human RPMI8226 cells at 10 uM by sulforhodamine B assay
Malme-3M = test: Growth inhibition of human MALME-3M cells at 10 uM by sulforhodamine B assay
OVCAR-8 = test: Growth inhibition of human OVCAR8 cells at 10 uM by sulforhodamine B assay
Hs-578T = test: Growth inhibition of human Hs 578T cells at 10 uM by sulforhodamine B assay
TK-10 = test: Growth inhibition of human TK10 cells at 10 uM by sulforhodamine B assay
CAKI-1 = test: Growth inhibition of human Caki1 cells at 10 uM by sulforhodamine B assay
KM12 = test: Growth inhibition of human KM12 cells at 10 uM by sulforhodamine B assay
SF-539 = test: Growth inhibition of human SF539 cells at 10 uM by sulforhodamine B assay
U-251 = test: Growth inhibition of human U251 cells at 10 uM by sulforhodamine B assay
SK-MEL-5 = test: Growth inhibition of human SK-MEL-5 cells at 10 uM by sulforhodamine B assay
NCI-H226 = test: Growth inhibition of human NCI-H226 cells at 10 uM by sulforhodamine B assay
HOP-62 = test: Growth inhibition of human HOP62 cells at 10 uM by sulforhodamine B assay
MDA-MB-468 = test: Growth inhibition of human MDA-MB-468 cells at 10 uM by sulforhodamine B assay
SNB-75 = test: Growth inhibition of human SNB75 cells at 10 uM by sulforhodamine B assay
MDA-MB-435 = test: Growth inhibition of human MDA-MB-435 cells at 10 uM by sulforhodamine B assay
MCF7 = test: Growth inhibition of human MCF7 cells at 10 uM by sulforhodamine B assay
NCI-H23 = test: Growth inhibition of human NCI-H23 cells at 10 uM by sulforhodamine B assay
HCT-15 = test: Growth inhibition of human HCT15 cells at 10 uM by sulforhodamine B assay
LOX IMVI = test: Growth inhibition of human LOXIMVI cells at 10 uM by sulforhodamine B assay
HL-60(TB) = test: Growth inhibition of human HL-60(TB) cells at 10 uM by sulforhodamine B assay
786-0 = test: Growth inhibition of human 786-0 cells at 10 uM by sulforhodamine B assay
A498 = test: Growth inhibition of human A498 cells at 10 uM by sulforhodamine B assay
UACC-257 = test: Growth inhibition of human UACC257 cells at 10 uM by sulforhodamine B assay
HCT-116 = test: Growth inhibition of human HCT116 cells at 10 uM by sulforhodamine B assay
UACC-62 = test: Growth inhibition of human UACC62 cells at 10 uM by sulforhodamine B assay
HOP-92 = test: Growth inhibition of human HOP92 cells at 10 uM by sulforhodamine B assay
IGROV-1 = test: Growth inhibition of human IGROV1 cells at 10 uM by sulforhodamine B assay
SR = test: Growth inhibition of human SR cells at 10 uM by sulforhodamine B assay
MOLT-4 = test: Growth inhibition of human MOLT4 cells at 10 uM by sulforhodamine B assay
T47D = test: Growth inhibition of human T47D cells at 10 uM by sulforhodamine B assay
CCRF-CEM = test: Growth inhibition of human CCRF-CEM cells at 10 uM by sulforhodamine B assay
SW-620 = test: Growth inhibition of human SW620 cells at 10 uM by sulforhodamine B assay
K562 = test: Growth inhibition of human K562 cells at 10 uM by sulforhodamine B assay
OVCAR-4 = test: Growth inhibition of human OVCAR4 cells at 10 uM by sulforhodamine B assay
SK-OV-3 = test: Growth inhibition of human SKOV3 cells at 10 uM by sulforhodamine B assay
A549 = test: Growth inhibition of human A549/ATCC cells at 10 uM by sulforhodamine B assay
MDA-MB-231 = test: Growth inhibition of human MDA-MB-231 cells at 10 uM by sulforhodamine B assay
SF-268 = test: Growth inhibition of human SF268 cells at 10 uM by sulforhodamine B assay
NCI-H460 = test: Growth inhibition of human NCI-H460 cells at 10 uM by sulforhodamine B assay
DU-145 = test: Growth inhibition of human DU145 cells at 10 uM by sulforhodamine B assay
HT-29 = test: Growth inhibition of human HT-29 cells at 10 uM by sulforhodamine B assay
OVCAR-5 = test: Growth inhibition of human OVCAR5 cells at 10 uM by sulforhodamine B assay
NCI-H322M = test: Growth inhibition of human NCI-H322M cells at 10 uM by sulforhodamine B assay
SNB-19 = test: Growth inhibition of human SNB19 cells at 10 uM by sulforhodamine B assay
ACHN = test: Growth inhibition of human ACHN cells at 10 uM by sulforhodamine B assay
HCC 2998 = test: Growth inhibition of human HCC2998 cells at 10 uM by sulforhodamine B assay
RXF 393 = test: Growth inhibition of human RXF393 cells at 10 uM by sulforhodamine B assay
M14 = test: Growth inhibition of human M14 cells at 10 uM by sulforhodamine B assay
COLO 205 = test: Growth inhibition of human COLO205 cells at 10 uM by sulforhodamine B assay
UO-31 = test: Growth inhibition of human UO31 cells at 10 uM by sulforhodamine B assay
NCI/ADR-RES = test: Growth inhibition of human NCI/ADR-RES cells at 10 uM by sulforhodamine B assay
PC-3 = test: Growth inhibition of human PC3 cells at 10 uM by sulforhodamine B assay
OVCAR-3 = test: Growth inhibition of human OVCAR3 cells at 10 uM by sulforhodamine B assay
BT-549 = test: Growth inhibition of human BT549 cells at 10 uM by sulforhodamine B assay
SF-295 = test: Growth inhibition of human SF295 cells at 10 uM by sulforhodamine B assay
SN12C = test: Growth inhibition of human SN12C cells at 10 uM by sulforhodamine B assay
NCI-H522 = test: Growth inhibition of human NCI-H522 cells at 10 uM by sulforhodamine B assay
SK-MEL-2 = test: Growth inhibition of human SK-MEL-2 cells at 10 uM by sulforhodamine B assay
SK-MEL-28 = test: Growth inhibition of human SK-MEL-28 cells at 10 uM by sulforhodamine B assay

Measured: growth inhibition (GI)

COc1ccc(-c2nc(-c3ccccc3)c(-c3ccccc3)n2C2CC2)cc1OC1CCCC1
active: all assays above

C#CCn1c(-c2ccc(OC)c(OC3CCCC3)c2)nc(-c2ccccc2)c1-c1ccccc1
active: all assays above
